Measurements reported in article PMC8868518, “Exploring Titanium(IV) Complexes as Potential Antimicrobial Compounds” (Antibiotics, 2022).
Structures can show the parent of a compound that is named as a salt. Where two headings read alike, the source gives them in different places.

Key:
[1] = tested on: MRC-5 cells; experiment: MRC-5 cell viability, dose-response treatment, MTT assay; format: cell-based, human; settings: MRC-5 cells, MTT, 72 h, pH 7.4, n = 6, this work
[2] = tested on: S. aureus MRSA (ATCC 43300); experiment: CO-ADD antibacterial assay, growth inhibition (OD600); format: cell-based, Staphylococcus aureus; settings: for MIC / Dmax: Staphylococcus aureus; for MIC / MIC S. aureus (MRSA): predicted or measured MIC, lowest concentration with ≥75% growth inhibition, 0.25-32 μg/mL, 18 h; for Dmax / Dmax S. aureus (MRSA), maximum % inhibition: up to 32 μg/mL; for Dmax: read-out: Dmax S. aureus (MRSA), maximum % inhibition
[3] = tested on: A. baumannii (ATCC 19606); experiment: as above; format: cell-based, Acinetobacter baumannii; settings: up to 32 μg/mL; for MIC / Dmax: Acinetobacter baumannii, ATCC19606; for MIC / MIC A. baumannii: predicted or measured MIC, ≥75% growth inhibition; for Dmax: read-out: Dmax A. baumannii, maximum % inhibition
[4] = tested on: E. coli (ATCC 25922); experiment: as above; format: cell-based, Escherichia coli; settings: up to 32 μg/mL; for MIC / Dmax: Escherichia coli, ATCC25922; for MIC / MIC E. coli: predicted or measured MIC, ≥75% growth inhibition; for Dmax: read-out: Dmax E. coli, maximum % inhibition
[5] = tested on: K. pneumoniae (ATCC 700603); experiment: as above; format: cell-based, Klebsiella pneumoniae; settings: up to 32 μg/mL; for MIC / Dmax: Klebsiella pneumoniae, ATCC700603; for MIC / MIC K. pneumoniae: predicted or measured MIC, ≥75% growth inhibition; for Dmax: read-out: Dmax K. pneumoniae, maximum % inhibition
[6] = tested on: P. aeruginosa (ATCC 27853); experiment: as above; format: cell-based, Pseudomonas aeruginosa; settings: up to 32 μg/mL; for MIC / Dmax: Pseudomonas aeruginosa, ATCC27853; for MIC / MIC P. aeruginosa: predicted or measured MIC, ≥75% growth inhibition; for Dmax: read-out: Dmax P. aeruginosa, maximum % inhibition
[7] = Homo sapiens, MRC5, read-out: IC50 ± SD
[8] = Homo sapiens, MRC5, read-out: IC50 ± SD (µg/mL)

Row | Molecule | IC50 [1, 7] | IC50 [1, 8] | MIC [2] | Dmax [2] | MIC [3] | Dmax [3] | MIC [4] | Dmax [4] | MIC [5] | Dmax [5] | MIC S. aureus (MRSA) [2] | Dmax S. aureus (MRSA), maximum % inhibition [2] | MIC A. baumannii [3] | Dmax A. baumannii, maximum % inhibition [3] | MIC E. coli [4] | Dmax E. coli, maximum % inhibition [4] | MIC K. pneumoniae [5] | Dmax K. pneumoniae, maximum % inhibition [5] | MIC P. aeruginosa [6] | Dmax P. aeruginosa, maximum % inhibition [6] | further results
1 | O=C(O)CC(O)(CC(=O)O)C(=O)O [Compound 1, Trisodium citrate, reference compound] | > 100 µM | > 29.4 µg/mL | > 32 µg/mL | 10.6% | > 32 µg/mL | 18% | > 32 µg/mL | 6.14% | > 32 µg/mL | 14.2% | – | – | – | – | – | – | – | – | – | – | MIC [6]: > 32 µg/mL; Dmax [6]: 10.3%
2 | Oc1cc2ccccc2cc1O [Compound 2, 2,3-dihydroxynaphthalene, reference compound] | > 100 µM | > 16 µg/mL | > 32 µg/mL | 12.6% | > 32 µg/mL | 31.3% | > 32 µg/mL | 6.86% | > 32 µg/mL | 26.8% | – | – | – | – | – | – | – | – | – | – | MIC [6]: > 32 µg/mL; Dmax [6]: 14.6%
3 | O=C(O)c1ccccc1O [Compound 6, salicylic acid, reference compound] | > 100 µM | > 13.8 µg/mL | > 32 µg/mL | 13.9% | > 32 µg/mL | 17.9% | > 32 µg/mL | -0.01% | > 32 µg/mL | 17.1% | – | – | – | – | – | – | – | – | – | – | MIC [6]: > 32 µg/mL; Dmax [6]: 9.76%
4 | [K+].[K+].c1ccc2cc3c(cc2c1)[O][Ti-2]12([O]3)([O]c3cc4ccccc4cc3[O]1)[O]c1cc3ccccc3cc1[O]2 [Compound 8, K2[Ti(Naphthalene-2,3-diolate)3]] | – | – | – | – | – | – | – | – | – | – | >32 µg/mL | 52.5% | >32 µg/mL | 24.76% | >32 µg/mL | 2.67% | >32 µg/mL | 22.94% | >32 µg/mL | 13.43% | IC50 ± SD (µg/mL) [1]: >>65.5 µg/mL; IC50 ([1]; read-out: IC50 ± SD): > 100 µM
5 | O=C(O)c1ccc(-n2nc3nc2-c2ccccc2[O][Ti]2([O]c4ccccc4-3)[O]c3ccccc3-c3nc(n(-c4ccc(C(=O)O)cc4)n3)-c3ccccc3[O]2)cc1 [Compound 10, titanium(IV) bis(deferasirox)] | – | – | – | – | – | – | – | – | – | – | 16 µg/mL | 98.2% | >32 µg/mL | 16.28% | >32 µg/mL | 20.44% | >32 µg/mL | 34.61% | >32 µg/mL | 7.57% | MIC against MRSA in units of molarity ([2]; converted from 16 μg/mL): 20.2 µM; Dmax S. aureus (MRSA), maximum % inhibition ([2]; listed as Ti(Deferasirox)2): ~100%
6 | O=C([O-])C(=O)O.O=C([O-])C(=O)O.[K+].[K+].[O]=[Ti] [Compound 14, Potassium dioxalatoxotitanate(IV) dihydrate] | – | – | – | – | – | – | – | – | – | – | >32 µg/mL | 40.5% | >32 µg/mL | 8.2% | >32 µg/mL | 11.0% | >32 µg/mL | 17.2% | >32 µg/mL | 7.5% | IC50 ± SD (µg/mL) [1]: >>35.4 µg/mL; IC50 ([1]; read-out: IC50 ± SD): > 100 µM
7 | [Cu(Deferasirox)(H2O)]2 [Compound 15] | – | – | – | – | – | – | – | – | – | – | >32 µg/mL | 26.9% | >32 µg/mL | 7.8% | >32 µg/mL | −9.5% | >32 µg/mL | 7.7% | >32 µg/mL | 19.2% | IC50 ± SD [1]: 7.70 ± 1.47 µg/mL; IC50 ([1]; read-out: IC50 ± SD): 8.4 ± 1.62 µM
